Laboratory results taken from PubChem BioAssay AID2060483 (Molecular Pharmacology Branch, DTP, NCI, 2025).
Where “and” joins values, the source holds several entries; their conditions need not be identical. Equal entries are not always repeated.

Tested on: K24384-001-R-PDC complex spheroids, viability
Assay: Anticancer human tumor K24384-001-R-PDC patient-derived pancreatic adenocarcinoma cell line growth inhibition [GQUAD]
Details: for viability, T/C: stronger effect = lower value; active = viability on the fitted dose curve at most 10% of control; inactive = the rest
Description: DNA G-quadruplex Stabilizer Agents in Combinations in Complex Spheroids
A high-throughput screen of multi-cell type tumor spheroids was designed to identify active combinations of DNA G-quadruplex stabilizer agents and targeted small molecules. Complex spheroids include a stromal component modeled by human endothelial cells (HUVEC) and fibroblasts modeled by human mesenchymal stem cells (MSCs). The concentration ranges selected for each drug and investigational agent were based upon clinically achievable concentrations if the clinical Cmax of the agent was known.
Compounds. The drugs and investigational agents: pidnarulex (CX-5461; NSC782164), APTO-253 (NSC789042), BRACO-19 (NSC847499), peposertib (NSC802822), ceralasertib (NSC780249), elimusertib (NSC800525), camonsertib (NSC841442), AZD-1390 (NSC803789), olaparib (NSC753686), talazoparib (NSC767125), ART-558 (NSC835418), sotorasib (NSC818433), MRTX-1133 (NSC836407), SN-38 (NSC673596), topotecan (NSC609699), etoposide (NSC141540), doxorubicin (NSC123127), gemcitabine (NSC613327), 5-fluorouracil (NSC19893), paclitaxel (NSC125973), vemurafenib (NSC761431), panobinostat (NSC761190), R-306465 (JNJ-16241199; NSC773264), adavosertib (NSC754352), TP-3654 (NSC805149), carboplatin (NSC241240), KSQ-4279 (NSC840948), and staurosporine (NSC755774) were obtained from the National Cancer Institute (NCI) Developmental Therapeutics Program Chemical Repository (34). The FDA-approved anticancer drug set is available from the NCI Developmental Therapeutics Program. […] The stock solutions were prepared in dimethyl sulfoxide (DMSO, Sigma-Aldrich, St. Louis, MO, cat. D2650) at 800-fold the tested concentration and stored at -70 degrees C prior to their use. All drugs and investigational agents were tested over a range starting from a high concentration at or near the clinical Cmax and decreasing in half-log increments. If the clinical Cmax for an agent had not been determined, the highest concentration tested was 10 microM.
2.3 Cell Culture. All cells were maintained in an incubator at 37 degrees C and 5% CO2 with 95% humidity. The PDC lines were cultured according to standard operating procedures established by the NCI PDMR. All PDCs were thawed and cultured in Matrigel-coated flasks prepared with a working solution of 1X Ham's F-12 nutrient mix, without supplementation (Invitrogen, cat. 11765054), 100 U/mL penicillin-streptomycin (Invitrogen, cat. 15140122), and 2.5% Matrigel (Corning Inc., cat. 354248) for the first three passages. The 857933-349-R-J2-PDC line was cultured in 6C/Colon 1B media, which includes advanced DMEM/F-12 (Thermo Fisher Scientific, cat. 12634028), 10 mM HEPES (Thermo Fisher Scientific, cat. 15630080), 1X GlutaMAX supplement (Thermo Fisher Scientific, cat. 35050061), 0.1 mg/mL primocin (InvivoGen, cat. ant-pm-2), 10% defined fetal bovine serum, heat inactivated (HyClone Laboratories Inc., cat. SH30070.03HI), 50% L-WRN conditioned media (ATCC, cat. CRL-3276), 1.25 mM N-Acetyl-L-cysteine (Sigma-Aldrich, cat. A9165), 10 mM nicotinamide (Sigma-Aldrich, cat. N0636), 1X B-27 supplement (Thermo Fisher Scientific, cat. 17504044), 1X N-2 supplement (Thermo Fisher Scientific, cat. 17502048), 10 microM Y-27632 dihydrochloride (Tocris Bioscience, cat. 1254), and 50 ng/mL human EGF recombinant protein (Thermo Fisher Scientific, cat. PHG0311). The 485176-168-R4-J1-PDC line was cultured in Panc media, which includes all 6C/Colon 1B media components plus 100 ng/mL human FGF-10 (Thermo Fisher Scientific, cat. 100-26), 500 nM SB-431542 (Selleckchem, cat. S1067), and gastrin (Tocris, cat. 3006).
[…]

[1] = curve of first compound, second compound 0.0316 µM
[2] = curve of first compound, second compound 0.1 µM
[3] = curve of first compound, second compound 0.316 µM
[4] = curve of first compound, second compound 1 µM
[5] = curve of first compound, second compound 3.16 µM
[6] = curve of first compound, second compound 10 µM
[7] = second compound 0.0316 µM, first compound 0.0316 µM
[8] = second compound 0.0316 µM, first compound 0.1 µM
[9] = second compound 0.0316 µM, first compound 0.316 µM
[10] = second compound 0.0316 µM, first compound 1 µM
[11] = second compound 0.0316 µM, first compound 3.16 µM
[12] = second compound 0.0316 µM, first compound 10 µM
[13] = second compound 0.1 µM, first compound 0.0316 µM
[14] = second compound 0.1 µM, first compound 0.1 µM
[15] = second compound 0.1 µM, first compound 0.316 µM
[16] = second compound 0.1 µM, first compound 1 µM
[17] = second compound 0.1 µM, first compound 3.16 µM
[18] = second compound 0.1 µM, first compound 10 µM
[19] = second compound 0.316 µM, first compound 0.0316 µM
[20] = second compound 0.316 µM, first compound 0.1 µM
[21] = second compound 0.316 µM, first compound 0.316 µM
[22] = second compound 0.316 µM, first compound 1 µM
[23] = second compound 0.316 µM, first compound 3.16 µM
[24] = second compound 0.316 µM, first compound 10 µM
[25] = second compound 1 µM, first compound 0.0316 µM
[26] = second compound 1 µM, first compound 0.1 µM
[27] = second compound 1 µM, first compound 0.316 µM
[28] = second compound 1 µM, first compound 1 µM
[29] = second compound 1 µM, first compound 3.16 µM
[30] = second compound 1 µM, first compound 10 µM
[31] = second compound 3.16 µM, first compound 0.0316 µM
[32] = second compound 3.16 µM, first compound 0.1 µM
[33] = second compound 3.16 µM, first compound 0.316 µM
[34] = second compound 3.16 µM, first compound 1 µM
[35] = second compound 3.16 µM, first compound 3.16 µM
[36] = second compound 3.16 µM, first compound 10 µM
[37] = second compound 10 µM, first compound 0.0316 µM
[38] = second compound 10 µM, first compound 0.1 µM
[39] = second compound 10 µM, first compound 0.316 µM
[40] = second compound 10 µM, first compound 1 µM
[41] = second compound 10 µM, first compound 3.16 µM
[42] = second compound 10 µM, first compound 10 µM
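Also: spheroids exposed to compounds for seven days.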

CC1COCCN1c1cc(C2(O)CC3CCC(C2)O3)c2cnn(-c3ccn[nH]3)c2n1 (stereo unspecified) + Cc1[nH]c2ccc(F)cc2c1-c1nc2c3cccnc3c3ncccc3c2[nH]1
139 nM: IC50 [5]
61.1 nM: IC50 [6]
182 nM: IC50 [4]
230 nM: IC50 [1]
209 nM: IC50 [2]
179 nM: IC50 [3]
inactive: viability, T/C [7] 75.8% | viability, T/C [8] 57.4% | viability, T/C [9] 51.6% | viability, T/C [10] 27% | viability, T/C [11] 24.5% | viability, T/C [12] 19.8% | viability, T/C [13] 65.6% | viability, T/C [14] 82.1% | viability, T/C [15] 36.4% | viability, T/C [16] 30.2% | viability, T/C [17] 33.5% | viability, T/C [18] 22.7% | viability, T/C [19] 69% | viability, T/C [20] 54.9% | viability, T/C [21] 44.2% | viability, T/C [22] 32.4% | viability, T/C [23] 32.9% | viability, T/C [24] 19.1% | viability, T/C [25] 77.3% | viability, T/C [26] 59.7% | viability, T/C [27] 37.2% | viability, T/C [28] 35.2% | viability, T/C [29] 32.4% | viability, T/C [30] 18.1% | viability, T/C [31] 53.8% | viability, T/C [32] 63.4% | viability, T/C [33] 28.4% | viability, T/C [34] 30.5% | viability, T/C [35] 28.7% | viability, T/C [36] 13.2% | viability, T/C [37] 55.3% | viability, T/C [38] 50.9% | viability, T/C [39] 26.2% | viability, T/C [40] 28.4% | viability, T/C [41] 22.9% | viability, T/C [42] 9.97%

CC1COCCN1c1cc(C2(S(C)(=N)=O)CC2)nc(-c2ccnc3[nH]ccc23)n1 (stereo unspecified)
inactive: viability, T/C (compound 0.0316 µM) 92.8% and 89.6% and 108% | viability, T/C (compound 0.1 µM) 96% and 93.6% and 99.5% | viability, T/C (compound 0.316 µM) 107% and 102% and 114% | viability, T/C (compound 1 µM) 65.9% and 56.5% and 74.8% | viability, T/C (compound 3.16 µM) 34.9% and 32.8% and 40% | viability, T/C (compound 10 µM) 33% (2×) and 26.7%
1770 nM and 1320 nM and 2110 nM: IC50 (curve of compound)

CC(C)(O)C1CCC(Nc2ccc3ncc(-c4cccc(C(F)(F)F)c4)n3n2)CC1 (stereo unspecified) + Cc1cnc(CNC(=O)c2c(=O)c3ccc(N4CCCN(C)CC4)nc3n3c2sc2ccccc23)cn1
active: viability, T/C [36] 0.16% | viability, T/C [38] 12.9% | viability, T/C [39] 5.01% | viability, T/C [40] 0.25% | viability, T/C [41] 0.24% | viability, T/C [42] 0.23%
31.6 nM: IC50 [3]
< 31.6 nM: IC50 [4] | IC50 [5] | IC50 [6]
1720 nM: IC50 [1]
inactive: viability, T/C [7] 89% | viability, T/C [8] 85.6% | viability, T/C [9] 90.3% | viability, T/C [10] 69.2% | viability, T/C [11] 26.6% | viability, T/C [12] 30.2% | viability, T/C [13] 55.6% | viability, T/C [14] 75.8% | viability, T/C [15] 72.7% | viability, T/C [16] 76.4% | viability, T/C [17] 22.4% | viability, T/C [18] 28.3% | viability, T/C [19] 42.4% | viability, T/C [20] 49.8% | viability, T/C [21] 46% | viability, T/C [22] 60.9% | viability, T/C [23] 28.8% | viability, T/C [24] 28.1% | viability, T/C [25] 37.1% | viability, T/C [26] 53% | viability, T/C [27] 36.4% | viability, T/C [28] 42.4% | viability, T/C [29] 22.3% | viability, T/C [30] 15.1% | viability, T/C [31] 30.4% | viability, T/C [32] 40.3% | viability, T/C [33] 36.9% | viability, T/C [34] 37.7% | viability, T/C [35] 0.14% | viability, T/C [37] 12.8%
1680 nM: IC50 [2]
